For data set [1], the target named is T1, HCV polymerase (NS5B570n-Con1) (Hepatitis C virus genotype 1b, UniProt Q9WMX2).
T1 construct: a 21 amino acid C-terminal deletion of full-length HCV polymerase derived from HCV Con1 strain; made in house; host or cells: E. coli BL21(DE3) pLysS, plasmid pET17b
The data set can be described thus: HCV NS5B RNA polymerase activity. Type of data set: biochemical, HCV Con1 strain. The method, then: The enzymatic activity of HCV polymerase (NS5B570n-Con1) was measured as the incorporation of radiolabeled nucleotide monophosphates into acid insoluble RNA products. Unincorporated radiolabeled substrate was removed by filtration and scintillant was added to the washed and dried filter plate containing radiolabeled RNA product. The amount of RNA product generated by NS5B570n-Con1 at the end of the reaction was directly proportional to the amount of light emitted by the scintillant.
The HCV polymerase used in the enzymatic activity assay is a 21 amino acid C-terminal deletion of full-length HCV polymerase derived from HCV Con1 strain, genotype 1b (GenBank accession number AJ242654) (NS5B570n-Con1). The NS5B570n-Cont was sub-cloned downstream to the T7 promoter of the plasmid expression construct pET17b and transformed into E. coli strain BL21(DE3) pLysS for protein expression. A single colony was used to start an innoculum for a 10 L culture in LB media supplemented with 100 μg/mL ampicillin at 37° C. […]
The amount of light emitted from the scintillant was converted to counts per minute (CPM) on a Topcount® plate reader (Perkin-Elmer, Energy Range: Low, Efficiency Mode: Normal, Count Time: 1 min, Background Subtract: none, Cross talk reduction: Off).
Data was analyzed in Excel® (Microsoft®) and ActivityBase® (Idbs®). […] All data was expressed as a percentage of the positive control. […]

Data set [2] relates to HCV. Conditions: cited from earlier work.
The subject of data set [3] is human hepatoma Huh7 cells. The data set can be described thus: Phosphorylation in Huh7 replicon cells. The format is in vitro ADME. The source says:
(FIG. 2) Since the cell specific phosphorylation takes place in the target tissue for HCV replication, there is the potential that 4′-AU will be selectively phosphorylated in the target tissue vis-à-vis other tissues thereby minimizing off target toxicity.

Data set [4] deals with primary human hepatocytes. Nature of the data set: Uptake and phosphorylation in primary human hepatocytes. The format is in vitro ADME. On the procedure:
The analysis of uptake and phosphorylation of the nucleoside analog 4AU in primary human hepatocytes was performed as previously published (Ma, H. et al. J. Biol. Chem. 2007, 282:29812-29820). Fresh human hepatocytes were plated and incubated with ^3H-labeled 4AU for different time spans. At the time of cell harvest the cell culture medium was aspirated, and the cells were washed once with cold phosphate-buffered saline. The cells were scraped into 1 mL of pre-chilled 60% (v/v) methanol containing 10 mM EDTA and extracted in methanol for 24 h at −20° C. The extracted samples were then centrifuged at 10,000×g for 15 min to remove cell debris. The supernatant was transferred to new tubes and evaporated in a speed vacuum at room temperature. The dried pellets of cell extracts were dissolved in H2O. Before HPLC analysis, cell extract samples were spiked with unlabeled reference standards 4AU and 4AU-mono-, di- and triphosphate derivatives.
The phosphorylation derivatives of 4AU were separated by ion exchange HPLC with a Whatman Partisil 10 SAX (4.6×250 mm) column coupled to a radiometric detector (β-RAM, IN/US Systems, Inc.). The mobile phase gradient changed linearly from 99% buffer A (H2O) and 1% buffer B (0.5 M KH2PO4+0.8 M KCl) to 100% buffer B between 4 and 16 minutes. 100% buffer B ran from 16 minutes to 26 minutes and changed back to 100% A in 1 minute. Buffer A ran until 32 minutes. […]

Data set [5] concerns HCV replicon (human hepatoma Huh7 cells). Conditions: cited from earlier work.
Data set [6] concerns HCV. Particulars: monotherapy; cited from earlier work.

As for `[N-]=[N+]=N[C@]1(COP(=O)(O)OP(=O)(O)OP(=O)(O)O)O[C@@H](n2ccc(=O)[nH]c2=O)[C@H](O)[C@@H]1O` [4′-AU triphosphate, 4-azidouridine triphosphate], in data set [1], half-maximal inhibition (IC50) required 0.46 ± 0.088 µM. Consider `[N-]=[N+]=N[C@]1(CO)O[C@@H](n2ccc(N)nc2=O)[C@H](O)[C@@H]1O` [4′-AC, 4′-azido-cytidine], for which the “inhibition of viral replication” value in data set [2] is listed as “potent inhibitor of viral replication”.

For the molecule `CCC(=O)O[C@H]1[C@H](n2ccc(=O)[nH]c2=O)O[C@@](CO)(N=[N+]=[N-])[C@H]1OC(=O)CC` [I-1, Propionic acid (2R,3R,4S,5R)-5-azido-2-(2,4-dioxo-3,4-dihydro-2H-pyrimidin-1-yl)-5-hydroxymethyl-4-propionyloxy-tetrahydro-furan-3-yl ester], the melting point (usually the temperature of the solid-liquid transition) lay in the range of 118 to 120 °C. For the molecule `[N-]=[N+]=N[C@]1(COP(=O)(O)OP(=O)(O)OP(=O)(O)O)O[C@@H](n2ccc(N)nc2=O)[C@H](O)[C@@H]1O` [4′-AC-triphosphate, 4′-azido-cytidine triphosphate], in data set [1], 29 ± 0.13 µM corresponded to half-maximal inhibition (IC50). With `CC(=O)OC(O)[C@@]1(N=[N+]=[N-])O[C@@H](n2ccc(=O)[nH]c2=O)[C@@](O)(OC(C)=O)[C@@]1(O)OC(C)=O` (some centres unmarked), the melting point stood at 158 °C. Regarding `[N-]=[N+]=N[C@]1(CO)O[C@@H](n2ccc(=O)[nH]c2=O)[C@H](O)[C@@H]1O` [4′-AU, 4′-azido-uridine], the “phosphorylation in Huh7 cells used in the replicon assay” value in data set [3] was “lack of phosphorylation”. Moreover, the “efficiency of phosphorylation relative to 4′-AC” value in data set [4] (4′-AU vs 4′-AC, human hepatocytes) is “approximately 10 fold”. Besides, in data set [4] (primary human hepatocytes), the “phosphorylation in primary human hepatocytes” value is given as “phosphorylation does occur efficiently”. In addition, in data set [5], the “activity in the replicon assay” value was “inactive”. For `NC(=O)c1ncn([C@@H]2O[C@H](CO)[C@@H](O)[C@H]2O)n1` [ribavirin, 1-((2R,3R,4S,5R)-3,4-Dihydroxy-5-hydroxymethyl-tetrahydro-furan-2-yl)-1H-[1,2,4]triazole-3-carboxylic acid amide], in data set [6], the “effect on serum levels of HCV-RNA” value is reported as “does not lower serum levels of HCV-RNA” and the “patients with serum amino transferase levels reduced to normal” value is 40%.

The record behind these values is US8236779B2, “Antiviral nucleosides” (Roche Palo Alto LLC, priority 2010, dated 2012).
